Tests used:
Format in all cases: in vivo
[1] = test system: redroot pigweed (Amaranthus retroflexus, AMARE); assay: Pre-emerge test, greenhouse herbicide activity screening; settings: rated 14 days after application, 0 = no damage, 100 = complete death
In short: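 Compounds in acetone were track-sprayed at 187 l/ha, 15–1000 g ai/ha, onto sandy loam pots. Pre-emerge seeds were sown one day before spraying, with surface watering afterwards. Post-emerge plants were at the 2–3 leaf stage and sprayed with 0.25% v/v non-ionic surfactant. Injury was rated 0–100 at 14 days.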

[2] = test system: barnyardgrass (Echinochloa crus-galli, ECHCG); assay: as above; settings: rated 14 days after application, 0 = no damage, 100 = complete death
In short: (§1)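 Plants grown in 10 cm pots of sandy loam mix received acetone-dissolved compounds through a moving flat-fan nozzle. Doses ranged from 15 to 1000 g ai/ha. Pre-emerge pots were seeded one day earlier, post-emerge pots 8–21 days earlier. Fourteen days on, each pot was graded 0–100 for damage.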

[3] = test system: green foxtail (Setaria viridis, SETVI); assay: as above; settings: rated 14 days after application, 0 = no damage, 100 = complete death
In short: as §1

[4] = test system: ivyleaf morningglory (Ipomoea hederacea, IPOHE); assay: as above; settings: rated 14 days after application, 0 = no damage, 100 = complete death
In short: as §1

[5] = test system: johnsongrass (Sorghum halepense, SORHA); assay: as above; settings: rated 14 days after application, 0 = no damage, 100 = complete death
In short: as §1

[6] = test system: lambsquarters (Chenopodium album, CHEAL); assay: as above; settings: rated 14 days after application, 0 = no damage, 100 = complete death
In short: as §1

[7] = test system: large crabgrass (Digitaria sanguinalis, DIGSA); assay: as above; settings: rated 14 days after application, 0 = no damage, 100 = complete death
In short: as §1

[8] = test system: sicklepod (Cassia obtusifolia, CASOB); assay: as above; settings: rated 14 days after application, 0 = no damage, 100 = complete death
In short: as §1

[9] = test system: velvetleaf (Abutilon theophrasti, ABUTH); assay: as above; settings: rated 14 days after application, 0 = no damage, 100 = complete death
In short: as §1

[10] = test system: barnyardgrass (Echinochloa crus-galli, ECHCG); assay: Post-emerge test, greenhouse herbicide activity screening; settings: post-emerge, 14 days after application, rating scale 0-100
In short: as §1

[11] = test system: green foxtail (Setaria viridis, SETVI); assay: as above; settings: post-emerge, 14 days after application, rating scale 0-100
In short: as §1

[12] = test system: ivyleaf morningglory (Ipomoea hederacea, IPOHE); assay: as above; settings: post-emerge, 14 days after application, rating scale 0-100
In short: as §1

[13] = test system: johnsongrass (Sorghum halepense, SORHA); assay: as above; settings: post-emerge, 14 days after application, rating scale 0-100
In short: as §1

[14] = test system: lambsquarters (Chenopodium album, CHEAL); assay: as above; settings: post-emerge, 14 days after application, rating scale 0-100
In short: as §1

[15] = test system: large crabgrass (Digitaria sanguinalis, DIGSA); assay: as above; settings: post-emerge, 14 days after application, rating scale 0-100
In short: as §1

[16] = test system: redroot pigweed (Amaranthus retroflexus, AMARE); assay: as above; settings: post-emerge, 14 days after application, rating scale 0-100
In short: as §1

[17] = test system: sicklepod (Cassia obtusifolia, CASOB); assay: as above; settings: post-emerge, 14 days after application, rating scale 0-100
In short: as §1

[18] = test system: velvetleaf (Abutilon theophrasti, ABUTH); assay: as above; settings: post-emerge, 14 days after application, rating scale 0-100
In short: as §1

Cn1c(C(F)(F)F)cc(=O)n(-c2c(F)cc(Cl)c(OC(F)F)c2NC(=O)c2ccc3ccccc3c2)c1=O [Compound 2-115, 3-[4-chloro-3-difluoromethoxy-6-fluoro-2-(2-naphthoylamino)phenyl]-1-methyl-6-trifluoromethyl-2,4(1H, 3H)-pyrimidinedione]
Pre-emerge Herbicidal Activity, phytotoxicity rating (0-100), AMARE ([1]; 63 g ai/ha): 100 | Pre-emerge Herbicidal Activity, phytotoxicity rating (0-100), AMARE ([1]; 125 g ai/ha): 100 | Pre-emerge Herbicidal Activity, phytotoxicity rating (0-100), ECHCG ([2]; 63 g ai/ha): 80 | Pre-emerge Herbicidal Activity, phytotoxicity rating (0-100), ECHCG ([2]; 125 g ai/ha): 95 | Pre-emerge Herbicidal Activity, phytotoxicity rating (0-100), SETVI ([3]; 63 g ai/ha): 90 | Pre-emerge Herbicidal Activity, phytotoxicity rating (0-100), SETVI ([3]; 125 g ai/ha): 99 | Pre-emerge Herbicidal Activity, phytotoxicity rating (0-100), IPOHE ([4]; 63 g ai/ha): 0 | Pre-emerge Herbicidal Activity, phytotoxicity rating (0-100), IPOHE ([4]; 125 g ai/ha): 90 | Pre-emerge Herbicidal Activity, phytotoxicity rating (0-100), SORHA ([5]; 63 g ai/ha): 20 | Pre-emerge Herbicidal Activity, phytotoxicity rating (0-100), SORHA ([5]; 125 g ai/ha): 30 | Pre-emerge Herbicidal Activity, phytotoxicity rating (0-100), CHEAL ([6]; 63 g ai/ha): 100 | Pre-emerge Herbicidal Activity, phytotoxicity rating (0-100), CHEAL ([6]; 125 g ai/ha): 100 | Pre-emerge Herbicidal Activity, phytotoxicity rating (0-100), DIGSA ([7]; 63 g ai/ha): 90 | Pre-emerge Herbicidal Activity, phytotoxicity rating (0-100), DIGSA ([7]; 125 g ai/ha): 100 | Pre-emerge Herbicidal Activity, phytotoxicity rating (0-100), CASOB ([8]; 63 g ai/ha): 20 | Pre-emerge Herbicidal Activity, phytotoxicity rating (0-100), CASOB ([8]; 125 g ai/ha): 80 | Pre-emerge Herbicidal Activity, phytotoxicity rating (0-100), ABUTH ([9]; 63 g ai/ha): 100 | Pre-emerge Herbicidal Activity, phytotoxicity rating (0-100), ABUTH ([9]; 125 g ai/ha): 100 | phytotoxicity rating ECHCG ([10]; 63 g ai/ha): 10 | phytotoxicity rating ECHCG ([10]; 250 g ai/ha): 20 | phytotoxicity rating SETVI ([11]; 63 g ai/ha): 0 | phytotoxicity rating SETVI ([11]; 250 g ai/ha): 0 | phytotoxicity rating IPOHE ([12]; 63 g ai/ha): 90 | phytotoxicity rating IPOHE ([12]; 250 g ai/ha): 95 | phytotoxicity rating SORHA ([13]; 63 g ai/ha): 0 | phytotoxicity rating SORHA ([13]; 250 g ai/ha): 0 | phytotoxicity rating CHEAL ([14]; 63 g ai/ha): 100 | phytotoxicity rating CHEAL ([14]; 250 g ai/ha): 100 | phytotoxicity rating DIGSA ([15]; 63 g ai/ha): 20 | phytotoxicity rating DIGSA ([15]; 250 g ai/ha): 50 | phytotoxicity rating AMARE ([16]; 63 g ai/ha): 100 | phytotoxicity rating AMARE ([16]; 250 g ai/ha): 100 | phytotoxicity rating CASOB ([17]; 63 g ai/ha): 90 | phytotoxicity rating CASOB ([17]; 250 g ai/ha): 95 | phytotoxicity rating ABUTH ([18]; 63 g ai/ha): 100 | phytotoxicity rating ABUTH ([18]; 250 g ai/ha): 100

From patent US6355799B1, “Substituted benzene compounds, process for their preparation, and herbicidal and defoliant compositions containing them” (ISK Americas Incorporated, priority 1997, dated 2002)
